Source: PubChem BioAssay AID330 (DTP/NCI, 2004)
“And” between values parts separate entries of the source, which are not always exact repeats. Identical values can stand only once. Toxic doses and inconclusive results are not listed.

System: P388 leukemia ip, CD2F1 mice, survival T/C
Assay: NCI In Vivo Anticancer Drug Screen. Data for tumor model P388 Leukemia (intraperitoneal) in CD2F1 (CDF1) mice
Settings: endpoint: median survival time, higher = longer survival
Method in brief: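 Mice carrying the transplanted tumor received test compound or vehicle. Survival was recorded in each group, and the value is the treated-group measurement divided by that of the vehicle-treated control group.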

[1] = dose: 50.0 mg/kg/injection, schedule: Q04DX002 (ip), vehicle: saline with Tween-80
[2] = dose: 100.0 mg/kg/injection, schedule: Q04DX002 (ip), vehicle: saline with Tween-80
[3] = dose: 200.0 mg/kg/injection, schedule: Q04DX002 (ip), vehicle: saline with Tween-80
[4] = dose: 60.0 mg/kg/injection, schedule: Q01DX005 (ip), vehicle: saline with Tween-80
[5] = dose: 120.0 mg/kg/injection, schedule: Q01DX005 (ip), vehicle: saline with Tween-80
[6] = dose: 240.0 mg/kg/injection, schedule: Q01DX005 (ip), vehicle: saline with Tween-80
[7] = dose: 50.0 mg/kg/injection, schedule: Q01DX009 (ip), vehicle: saline
[8] = dose: 50.0 mg/kg/injection, schedule: Q01DX005 (ip), vehicle: Klucel (hydroxypropylcellulose) (HPC)
[9] = dose: 100.0 mg/kg/injection, schedule: Q01DX005 (ip), vehicle: Klucel (hydroxypropylcellulose) (HPC)
[10] = dose: 200.0 mg/kg/injection, schedule: Q01DX005 (ip), vehicle: Klucel (hydroxypropylcellulose) (HPC)
[11] = dose: 200.0 mg/kg/injection, schedule: Q04DX003 (ip), vehicle: Klucel (hydroxypropylcellulose) (HPC)
[12] = dose: 50.0 mg/kg/injection, schedule: Q01DX009 (ip), vehicle: saline with Tween-80
[13] = dose: 50.0 mg/kg/injection, schedule: Q01DX005 (ip), vehicle: saline with Tween-80
[14] = dose: 100.0 mg/kg/injection, schedule: Q01DX005 (ip), vehicle: saline with Tween-80
[15] = dose: 25.0 mg/kg/injection, schedule: Q01DX005 (ip), vehicle: saline with Tween-80
[16] = dose: 200.0 mg/kg/injection, schedule: Q01DX005 (ip), vehicle: saline with Tween-80
[17] = dose: 100.0 mg/kg/injection, schedule: Q01DX001 (ip), vehicle: Klucel (hydroxypropylcellulose) (HPC)
[18] = dose: 400.0 mg/kg/injection, schedule: Q01DX001 (ip), vehicle: Klucel (hydroxypropylcellulose) (HPC)

In the case of CSc1sc(C#N)c2nc3c(nc12)-c1cccc2cccc-3c12, the T/C [1] is reported as 88 % of control, the T/C [2] is reported as 88 % of control and the T/C [3] is reported as 91 % of control.

CC(=O)Nc1ccc(/C=N/NC(=O)CC2CCCCC2)cc1 was tested, and the T/C [4] was 96 % of control, the T/C [5] was 100 % of control and the T/C [6] was 91 % of control.

For COc1ccc(Cc2nccc3cc(OC)c(OC)cc23)cc1OC, the T/C (dose: 12.5 mg/kg/injection, schedule: Q01DX009 (ip), vehicle: saline) was 104 % of control and the T/C [7] was 109 % of control.

CCCCN=Cc1ccccc1 was tested, and the T/C (dose: 100.0 mg/kg/injection, schedule: Q04DX003 (ip), vehicle: saline with Tween-80) was 100 % of control and the T/C (dose: 200.0 mg/kg/injection, schedule: Q04DX003 (ip), vehicle: saline with Tween-80) was 100 % of control.

For CCC(=NCCN=C(CC)c1cc(C)ccc1O)c1cc(C)ccc1O, the T/C [8] was 101 % of control, the T/C [9] was 108 % of control and the T/C [10] was 111 % of control.

NC(=Nc1ccc(Cl)cc1)NN=C(c1ccc(Cl)cc1)c1ccc(Cl)cc1 was tested, and the T/C (dose: 25.0 mg/kg/injection, schedule: Q04DX002 (ip), vehicle: saline with Tween-80) was 104 % of control, the T/C [1] was 101 % of control and the T/C [2] was 102 % of control. The T/C [3] was 100 % of control and the T/C (dose: 400.0 mg/kg/injection, schedule: Q04DX002 (ip), vehicle: saline with Tween-80) was 113 % of control.

Cc1ccc(N=Nc2c(O)ccc3n[nH]nc23)cc1 was tested, and the T/C (dose: 50.0 mg/kg/injection, schedule: Q01DX009 (ip), vehicle: Klucel (hydroxypropylcellulose) (HPC)) was 99 % of control, the T/C (dose: 100.0 mg/kg/injection, schedule: Q01DX009 (ip), vehicle: Klucel (hydroxypropylcellulose) (HPC)) was 101 % of control and 105 % of control and the T/C (dose: 100.0 mg/kg/injection, schedule: Q04DX003 (ip), vehicle: Klucel (hydroxypropylcellulose) (HPC)) was 100 % of control. The T/C (dose: 200.0 mg/kg/injection, schedule: Q01DX009 (ip), vehicle: Klucel (hydroxypropylcellulose) (HPC)) was 99 % of control and 109 % of control, the T/C [11] was 100 % of control and the T/C (dose: 400.0 mg/kg/injection, schedule: Q01DX009 (ip), vehicle: Klucel (hydroxypropylcellulose) (HPC)) was 100 % of control and 109 % of control. The T/C (dose: 400.0 mg/kg/injection, schedule: Q04DX003 (ip), vehicle: Klucel (hydroxypropylcellulose) (HPC)) was 93 % of control.

With CCCCCCCCOP(=O)(N1CC1C)N1CC1C (stereo unspecified) the T/C (dose: 12.5 mg/kg/injection, schedule: Q01DX009 (ip), vehicle: saline with Tween-80) was 113 % of control, the T/C (dose: 25.0 mg/kg/injection, schedule: Q04DX003 (ip), vehicle: saline) was 109 % of control and the T/C [12] was 158 % of control and 168 % of control. For the same compound, the T/C (dose: 50.0 mg/kg/injection, schedule: Q04DX003 (ip), vehicle: saline) was 113 % of control.

For O=C(NC1CCCCC1)C(O)C(O)C(O)C(O)CO (stereo unspecified), the T/C [8] was 107 % of control, the T/C [9] was 107 % of control and the T/C [10] was 104 % of control.

For S=c1n(-c2ccc(Cl)cc2)c2nc3ccccc3nc(/c2=N\Nc2ccccc2)n1-c1ccccn1, the T/C [13] was 91 % of control and the T/C [14] was 100 % of control.

With O=C(Oc1ccc[nH]c1=O)C1CCC1 the T/C [8] was 102 % of control and 92 % of control, the T/C [9] was 102 % of control and 90 % of control and the T/C [10] was 100 % of control and 91 % of control. For the same compound, the T/C (dose: 400.0 mg/kg/injection, schedule: Q01DX005 (ip), vehicle: Klucel (hydroxypropylcellulose) (HPC)) was 100 % of control and 103 % of control.

With COc1cc(C(=O)Oc2c(OC)cc(C(=O)c3cc4c(cc3C)OCO4)cc2OC)cc(OC)c1OC the T/C [8] was 88 % of control and the T/C [9] was 88 % of control.

N#Cc1c(=O)n(O)c2ccccc2[n+]1[O-] was tested, and the T/C [15] was 94 % of control, the T/C [13] was 97 % of control and the T/C [14] was 106 % of control. The T/C [16] was 102 % of control and the T/C (dose: 400.0 mg/kg/injection, schedule: Q01DX005 (ip), vehicle: saline with Tween-80) was 93 % of control.

CC1(C)OC(=O)N=C1c1ccc(F)cc1 was tested, and the T/C (dose: 60.0 mg/kg/injection, schedule: Q01DX005 (ip), vehicle: Klucel (hydroxypropylcellulose) (HPC)) was 102 % of control, the T/C (dose: 120.0 mg/kg/injection, schedule: Q01DX005 (ip), vehicle: Klucel (hydroxypropylcellulose) (HPC)) was 107 % of control and the T/C (dose: 240.0 mg/kg/injection, schedule: Q01DX005 (ip), vehicle: Klucel (hydroxypropylcellulose) (HPC)) was 111 % of control.

With S=C(N/N=C/c1ccccn1)Nc1ccccn1 the T/C (dose: 130.0 mg/kg/injection, schedule: Q04DX003 (ip), vehicle: Klucel (hydroxypropylcellulose) (HPC)) was 117 % of control, the T/C [11] was 123 % of control and the T/C (dose: 300.0 mg/kg/injection, schedule: Q04DX003 (ip), vehicle: Klucel (hydroxypropylcellulose) (HPC)) was 107 % of control.

With Cc1ccc(S(=O)(=O)N/N=C/c2c(-c3ccc(Cl)cc3)nc3n2CCS3)cc1 the T/C [17] was 100 % of control, the T/C (dose: 200.0 mg/kg/injection, schedule: Q01DX001 (ip), vehicle: Klucel (hydroxypropylcellulose) (HPC)) was 92 % of control and the T/C [18] was 94 % of control.

With C[CH2][Sn][CH2]C.O=C(CC(=O)c1ccccc1)c1ccccc1.O=C(CC(=O)c1ccccc1)c1ccccc1 the T/C (dose: 12.5 mg/kg/injection, schedule: Q01DX001 (ip), vehicle: Klucel (hydroxypropylcellulose) (HPC)) was 115 % of control, the T/C (dose: 25.0 mg/kg/injection, schedule: Q01DX001 (ip), vehicle: Klucel (hydroxypropylcellulose) (HPC)) was 111 % of control and the T/C (dose: 50.0 mg/kg/injection, schedule: Q01DX001 (ip), vehicle: Klucel (hydroxypropylcellulose) (HPC)) was 115 % of control. The T/C [17] was 110 % of control and the T/C [18] was 115 % of control.

In the case of O=c1cc(-c2ccccc2)oc2c1CCCC2, the T/C [8] is reported as 101 % of control, the T/C [9] is reported as 97 % of control and the T/C [10] is reported as 101 % of control.

CCOC(=O)c1cc(NO)c(=O)c2ccc(OC)cc2c1 was tested, and the T/C [15] was 91 % of control, the T/C [13] was 90 % of control and 96 % of control and the T/C [14] was 89 % of control. The T/C [16] was 91 % of control.

For C=CC(=NC(C)C)NC(C)C, the T/C (dose: 1.56 mg/kg/injection, schedule: Q01DX009 (ip), vehicle: saline) was 100 % of control and the T/C (dose: 3.13 mg/kg/injection, schedule: Q01DX009 (ip), vehicle: saline) was 101 % of control.

In the case of Oc1[nH]c(N=C2N=c3ccccc3=N2)c2ccccc12, the T/C [12] is reported as 118 % of control, the T/C (dose: 100.0 mg/kg/injection, schedule: Q01DX009 (ip), vehicle: saline with Tween-80) is reported as 103 % of control and the T/C (dose: 200.0 mg/kg/injection, schedule: Q01DX009 (ip), vehicle: saline with Tween-80) is reported as 104 % of control.

CC(=O)OCCn1c([N+](=O)[O-])cnc1/C=[N+](/C)[O-] was tested, and the T/C [7] was 101 % of control, the T/C (dose: 100.0 mg/kg/injection, schedule: Q01DX009 (ip), vehicle: saline) was 102 % of control and the T/C (dose: 200.0 mg/kg/injection, schedule: Q01DX009 (ip), vehicle: saline) was 103 % of control.

In the case of CC(=O)Nc1ccc2nc(/C=C/c3ccc(N(C)C)cc3)c(=O)oc2c1, the T/C [4] is reported as 102 % of control, the T/C [5] is reported as 96 % of control and the T/C [6] is reported as 91 % of control.

Cc1cnc(C)n2cnnc12 was tested, and the T/C (dose: 100.0 mg/kg/injection, schedule: Q04DX003 (ip), vehicle: saline) was 93 % of control, the T/C (dose: 200.0 mg/kg/injection, schedule: Q04DX003 (ip), vehicle: saline) was 95 % of control and the T/C (dose: 400.0 mg/kg/injection, schedule: Q04DX003 (ip), vehicle: saline) was 98 % of control.

With COc1cccc(N=Nc2c(-c3ccccc3)nn(C(=S)S)c2C)c1 the T/C [13] was 93 % of control, the T/C [14] was 93 % of control and the T/C [16] was 91 % of control.

For CCc1c(CO)c(CO)c(-c2ccccc2)n1CCn1c(CC)c(CO)c(CO)c1-c1ccccc1, the T/C (dose: 100.0 mg/kg/injection, schedule: Q01DX001 (ip), vehicle: saline with Tween-80) was 96 % of control, the T/C (dose: 200.0 mg/kg/injection, schedule: Q01DX001 (ip), vehicle: saline with Tween-80) was 88 % of control and the T/C (dose: 400.0 mg/kg/injection, schedule: Q01DX001 (ip), vehicle: saline with Tween-80) was 96 % of control.
